Assay results taken from US20250171437A1 (Agios Pharmaceuticals,Inc., priority 2022, published 2025).

The compounds below were run against T1, human PAH with the R408W mutation (A375 R408W cells) (Homo sapiens, UniProt P00439, R408W) (assay: Cell Based Phenylalanine Flux Assay). Conditions: A375 R408W cells; 24 hrs with compound, then 20 μM sepiapterin and 800 μM 13C9,15N-Phenylalanine for 4 hours; 13C-Tyrosine by LC-MS; average where tested multiple times.
T1 construct: expressed in transfected cells
T1 sequence (P00439 1-452 R408W): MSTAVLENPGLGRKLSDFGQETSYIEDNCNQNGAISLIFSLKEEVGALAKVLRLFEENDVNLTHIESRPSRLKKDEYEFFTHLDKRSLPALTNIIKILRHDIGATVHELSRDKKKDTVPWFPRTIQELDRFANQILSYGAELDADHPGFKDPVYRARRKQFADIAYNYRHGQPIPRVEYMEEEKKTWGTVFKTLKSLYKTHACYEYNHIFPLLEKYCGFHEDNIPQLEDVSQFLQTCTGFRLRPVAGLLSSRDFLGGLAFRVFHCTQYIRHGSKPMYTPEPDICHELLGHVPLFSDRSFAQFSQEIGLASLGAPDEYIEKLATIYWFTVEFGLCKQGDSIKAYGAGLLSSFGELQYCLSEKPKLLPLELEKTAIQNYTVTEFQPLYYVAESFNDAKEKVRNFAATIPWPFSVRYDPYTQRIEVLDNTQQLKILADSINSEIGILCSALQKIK
Summary of the method: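 A375 cells stably expressing human PAH R408W treated 24 h at 37° C with a 10-point 2-fold dose curve in duplicate, 0.5% DMSO. Then 20 μM sepiapterin and 800 μM 13C9,15N-Phe added for 4 h; 13C-Tyr in media measured by LC-MS to give AC50.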

AC50 | Structure (SMILES)
0.5 to 1 µM | CNC(C)(C)c1nc(C(F)F)c(C(=O)N2CCc3[nH]cnc3[C@H]2c2nc3cc(F)ccc3o2)o1 [Example 221, (S)-(4-(difluoromethyl)-2-(2-(methylamino)propan-2-yl)oxazol-5-yl)(4-(5-fluorobenzo[d]oxazol-2-yl)-6,7-dihydro-1H-imidazo[4,5-c]pyridin-5(4H)-yl)methanone]
0.5 to 1 µM | O=C(c1oc(-c2cncnc2)nc1C(F)F)N1CCc2[nH]cnc2[C@@H]1c1nc2cc(F)ccc2o1 [Example 405, (R)-(4-(difluoromethyl)-2-(pyrimidin-5-yl)oxazol-5-yl)(4-(5-fluorobenzo[d]oxazol-2-yl)-6,7-dihydro-1H-imidazo[4,5-c]pyridin-5(4H)-yl)methanone]
0.5 to 1 µM | O=C(c1cnco1)N1CCc2[nH]cnc2[C@H]1c1nc2c(F)ccc(F)c2o1 [Example 483, (S)-(4-(4,7-difluorobenzo[d]oxazol-2-yl)-6,7-dihydro-1H-imidazo[4,5-c]pyridin-5(4H)-yl)(oxazol-5-yl)methanone]
≤ 0.5 µM | O=C(c1ocnc1C(F)(F)F)N1CCc2[nH]cnc2[C@H]1c1nc2c(F)ccc(F)c2o1 [Example 795, (S)-(4-(4,7-difluorobenzo[d]oxazol-2-yl)-6,7-dihydro-1H-imidazo[4,5-c]pyridin-5(4H)-yl)(4-(trifluoromethyl)oxazol-5-yl)methanone]
1 to 5 µM | O=C(c1nnc(-c2ccc(OC(F)(F)F)cn2)o1)N1CCc2[nH]cnc2[C@H]1c1nc2cc(F)ccc2o1 [Example 671, (S)-(4-(5-fluorobenzo[d]oxazol-2-yl)-6,7-dihydro-1H-imidazo[4,5-c]pyridin-5(4H)-yl)(5-(5-(trifluoromethoxy)pyridin-2-yl)-1,3,4-oxadiazol-2-yl)methanone]
≤ 0.5 µM | O=C(c1ocnc1C(F)(F)F)N1CCc2[nH]cnc2[C@@H]1c1nc2cc(Br)ccc2o1 [Example 148, (R)-(4-(5-bromobenzo[d]oxazol-2-yl)-6,7-dihydro-1H-imidazo[4,5-c]pyridin-5(4H)-yl)(4-(trifluoromethyl)oxazol-5-yl)methanone]
≤ 0.5 µM | O=C(c1ocnc1C(F)F)N1CCc2[nH]cnc2[C@H]1c1nc2cc(C(F)(F)F)ccc2o1 [Example 329, (S)-(4-(difluoromethyl)oxazol-5-yl)(4-(5-(trifluoromethyl)benzo[d]oxazol-2-yl)-6,7-dihydro-1H-imidazo[4,5-c]pyridin-5(4H)-yl)methanone]
0.5 to 1 µM | O=C(c1ocnc1CC(F)F)N1CCc2[nH]cnc2[C@@H]1c1nc2ccccc2o1 [Example 874, (R)-(4-(benzo[d]oxazol-2-yl)-6,7-dihydro-1H-imidazo[4,5-c]pyridin-5(4H)-yl)(4-(2,2-difluoroethyl)oxazol-5-yl)methanone]
1 to 5 µM | CC(C)(CO)c1nc(C(F)F)c(C(=O)N2CCc3[nH]cnc3[C@@H]2c2nc3cc(F)ccc3o2)o1 [Example 823, (R)-(4-(difluoromethyl)-2-(1-hydroxy-2-methylpropan-2-yl)oxazol-5-yl)(4-(5-fluorobenzo[d]oxazol-2-yl)-6,7-dihydro-1H-imidazo[4,5-c]pyridin-5(4H)-yl)methanone]
0.5 to 1 µM | COc1cc(F)cc2nc([C@H]3c4nc[nH]c4CCN3C(=O)c3ocnc3C(F)F)oc12 [Example 717, (R)-(4-(difluoromethyl)oxazol-5-yl)(4-(5-fluoro-7-methoxybenzo[d]oxazol-2-yl)-6,7-dihydro-1H-imidazo[4,5-c]pyridin-5(4H)-yl)methanone]
0.5 to 1 µM | O=C(c1ocnc1C(F)F)N1CCc2[nH]cnc2[C@@H]1c1nc2cc(Cl)ccc2o1 [Example 377, (R)-(4-(5-chlorobenzo[d]oxazol-2-yl)-6,7-dihydro-1H-imidazo[4,5-c]pyridin-5(4H)-yl)(4-(difluoromethyl)oxazol-5-yl)methanone]
≤ 0.5 µM | CC(C)(O)c1nc(C(F)F)c(C(=O)N2CCc3[nH]cnc3[C@H]2c2nc3cc(C(F)(F)F)ccc3o2)o1 [Example 327, (S)-(4-(difluoromethyl)-2-(2-hydroxypropan-2-yl)oxazol-5-yl)(4-(5-(trifluoromethyl)benzo[d]oxazol-2-yl)-6,7-dihydro-1H-imidazo[4,5-c]pyridin-5(4H)-yl)methanone]
1 to 5 µM | C[C@H](O)c1nc(C(F)F)c(C(=O)N2CCc3[nH]cnc3[C@@H]2c2nc3c(F)cccc3o2)o1 [Example 228, (4-(difluoromethyl)-2-((S)-1-hydroxyethyl)oxazol-5-yl)((R)-4-(4-fluorobenzo[d]oxazol-2-yl)-6,7-dihydro-1H-imidazo[4,5-c]pyridin-5(4H)-yl)methanone]
≤ 0.5 µM | COc1ccc(-c2nnc(C(=O)N3CCc4[nH]cnc4[C@H]3c3nc4cc(C)ccc4o3)o2)nc1 [Example 677, (S)-(5-(5-methoxypyridin-2-yl)-1,3,4-oxadiazol-2-yl)(4-(5-methylbenzo[d]oxazol-2-yl)-6,7-dihydro-1H-imidazo[4,5-c]pyridin-5(4H)-yl)methanone]
1 to 5 µM | Cn1cc(C(=O)N2CCc3[nH]cnc3[C@@H]2c2nc3cc(F)ccc3o2)c(C(F)F)n1 [Example 96, (R)-(3-(difluoromethyl)-1-methyl-1H-pyrazol-4-yl)(4-(5-fluorobenzo[d]oxazol-2-yl)-6,7-dihydro-1H-imidazo[4,5-c]pyridin-5(4H)-yl)methanone]
0.5 to 1 µM | Cc1nc(C(C)(C)O)oc1C(=O)N1CCc2[nH]cnc2[C@H]1c1nc2c(F)cccc2o1 [Example 259, (S)-(4-(4-fluorobenzo[d]oxazol-2-yl)-6,7-dihydro-1H-imidazo[4,5-c]pyridin-5(4H)-yl)(2-(2-hydroxypropan-2-yl)-4-methyloxazol-5-yl)methanone]
0.5 to 1 µM | COCc1ccc2c(C(=O)N3CCc4[nH]cnc4[C@H]3c3nc4cccc(F)c4o3)cnn2c1 [Example 265, (S)-(4-(7-fluorobenzo[d]oxazol-2-yl)-6,7-dihydro-1H-imidazo[4,5-c]pyridin-5(4H)-yl)(6-(methoxymethyl)pyrazolo[1,5-a]pyridin-3-yl)methanone]
1 to 5 µM | Cc1cccc2nc([C@H]3c4nc[nH]c4CCN3C(=O)c3nnc(-c4ncccc4F)o3)oc12 [Example 857, (R)-(5-(3-fluoropyridin-2-yl)-1,3,4-oxadiazol-2-yl)(4-(7-methylbenzo[d]oxazol-2-yl)-6,7-dihydro-1H-imidazo[4,5-c]pyridin-5(4H)-yl)methanone]
1 to 5 µM | O=C(c1ccnn1C(F)F)N1CCc2[nH]cnc2[C@@H]1c1nc2c(F)cc(F)cc2o1 [Example 490, (R)-(4-(4,6-difluorobenzo[d]oxazol-2-yl)-6,7-dihydro-1H-imidazo[4,5-c]pyridin-5(4H)-yl)(1-(difluoromethyl)-1H-pyrazol-5-yl)methanone]
1 to 5 µM | O=C(c1cnc(-c2ccccn2)s1)N1CCc2[nH]cnc2[C@@H]1c1nc2cc(F)ccc2o1 [Example 6, (R)-(4-(5-fluorobenzo[d]oxazol-2-yl)-6,7-dihydro-1H-imidazo[4,5-c]pyridin-5(4H)-yl)(2-(pyridin-2-yl)thiazol-5-yl)methanone]
≥ 5 µM | Cc1ccc2oc([C@H]3c4nc[nH]c4CCN3C(=O)c3ncc(Cl)s3)nc2c1 [Example 2, (R)-(5-chlorothiazol-2-yl)(4-(5-methylbenzo[d]oxazol-2-yl)-6,7-dihydro-1H-imidazo[4,5-c]pyridin-5(4H)-yl)methanone]
1 to 5 µM | O=C(c1ccnn1C(F)F)N1CCc2[nH]cnc2[C@@H]1c1nc2cccc(F)c2o1 [Example 196, (R)-(1-(difluoromethyl)-1H-pyrazol-5-yl)(4-(7-fluorobenzo[d]oxazol-2-yl)-6,7-dihydro-1H-imidazo[4,5-c]pyridin-5(4H)-yl)methanone]

Same assay, conditions: A375 cells expressing R408W PAH; 24 hrs with compound, then 20 μM sepiapterin and 800 μM 13C9,15N-Phenylalanine for 4 hours; 13C-Tyrosine by LC-MS; average where tested multiple times

AC50 | Structure (SMILES)
1 to 5 µM | O=C(c1nnc(-c2cn[nH]c2)o1)N1CCc2[nH]cnc2C1c1nc2c(F)cccc2o1 (stereo not shown)
1 to 5 µM | Cc1cccc2nc(C3c4nc[nH]c4CCN3C(=O)c3ccnn3-c3ccccn3)oc12 (stereo not shown)
1 to 5 µM | O=C(c1nc(C(F)(F)F)co1)N1CCc2nc[nH]c2C1c1nc2cc(F)ccc2o1 (stereo not shown)
≥ 5 µM | O=C(c1cnn2cc(CN3CCOCC3)ccc12)N1CCc2[nH]cnc2C1c1nc2cc(F)ccc2o1 (stereo not shown)
1 to 5 µM | Cc1nc(C2(O)CC2)oc1C(=O)N1CCc2[nH]cnc2C1c1nc2cc(F)ccc2o1 (stereo not shown)
≥ 5 µM | O=C(c1cnn2cc(F)ccc12)N1CCc2[nH]cnc2C1c1nc2cc(F)ccc2o1 (stereo not shown)
1 to 5 µM | COCc1ccc2c(C(=O)N3CCc4[nH]cnc4C3c3nc4ccc(C)cc4o3)cnn2c1 (stereo not shown)
≥ 5 µM | CC(C)(O)c1nc(C(=O)N2CCc3[nH]cnc3C2c2nc3ccc(F)cc3o2)no1 (stereo not shown)
1 to 5 µM | COCc1ncc(C(=O)N2CCc3[nH]cnc3C2c2nc3cc(F)ccc3o2)o1 (stereo not shown)
≥ 5 µM | O=C(c1cnco1)N1CCc2[nH]cnc2C1c1nc2ccc(F)cc2o1 (stereo not shown)
1 to 5 µM | O=C(c1nccs1)N1CCc2[nH]cnc2C1c1nc2ccc(Br)cc2o1 (stereo not shown)
≥ 5 µM | Cc1ccc2nc(C3c4nc[nH]c4CCN3C(=O)c3nnc(C(C)(C)O)o3)oc2c1 (stereo not shown)
1 to 5 µM | Cc1cccc2nc(C3c4nc[nH]c4CCN3C(=O)c3cnc(C(C)(C)O)o3)oc12 (stereo not shown)
≥ 5 µM | Cn1nc(C(C)(C)C)cc1C(=O)N1CCc2[nH]cnc2C1c1nc2ccccc2o1 (stereo not shown)
1 to 5 µM | O=C(c1nnc(-c2cc[nH]n2)o1)N1CCc2[nH]cnc2C1c1nc2cc(F)ccc2o1 (stereo not shown)
